According to US20240124503A1, “HETEROAROMATIC PHOSPHONIUM SALTS AND THEIR USE TREATING CANCER” (FLORATEK PHARMA S.A., priority 2021, published 2024):

How the values were obtained:
Type in all cases: cell-based
[1] = test system: bile duct PDX; assay: Cell viability, bile duct PDX (panel statement); details: summary of Table 3; read-out: IC50, bile duct PDX growth
Method: PDX-derived cell cultures were obtained from tumors explanted from mice and isolated by mechanical and enzymatic dissociation. […] Cells were harvested and seeded in 96-wells plates at a density of 1.25 to 5×10^3 cells/well for cytotoxicity assays. Cells were incubated 48 h at 37° C. prior to addition of test molecules and vehicle (DMSO, 0.1%) at desired final concentrations. Cell viability was assessed before drugs' addition (To) and 5 days after test molecules addition by measuring ATP cell content using CellTiter-Glo® Luminescent Cell Viability Assay (Promega) according to the manufacturer's instructions. Luciferase activity was measured on a luminometer (PerkinElmer® EnVision™). Each concentration of compounds was tested in triplicate.
Viability was calculated as a percentage of ATP value compared to vehicle treated controls.
For PDX primary cell cultures, the tumour tissue was washed with PBS containing antibiotic-antimycotic and non-tumour tissue and necrotic tumour tissues were separated. The tumour tissue was transferred to a new dish and cut into 1˜2 mm^3 fragments, resuspended in RPMI-1640 medium and centrifuged at 1,200 rpm for 6 min at room temperature. The pelleted material was resuspended with 15 mL of Tumour Cell Digestion Solution and incubated at 37° C. for 1 hour with agitation. […]

[2] = test system: lung carcinoma cell; assay: Cell viability, lung carcinoma cells (panel statement); details: summary of Table 13; read-out: IC50, lung carcinoma cell growth
Method: (§1) Antitumor activity of the compounds and doxorubicin as a positive control was assessed by using the CellTiter-Blue Cell Viability Assay (Promega, #G8082) or CellTiter-Glow® Luminescent Cell Viability assay (Promega #G7572) according to the manufacturer's instructions. The compounds were tested at 5 or 6 concentrations in half-log increments (highest concentration 30 μM or 100 μM) in duplicate or triplicate well conditions.
(§2) Tumor cells were grown at 37° C. in a humidified atmosphere with 5% CO2 in RPMI 1640 or DMEM medium, supplemented with 10% (v/v) fetal calf serum and 50 μg/ml gentamicin for up to 20 passages, and were passaged once or twice weekly. Cells were harvested using TrypLE or PBS buffer containing 1 mM EDTA, and the percentage of viable cells was determined using a CASY Model TI cell counter (OMNI Life Science). Cells were harvested from exponential phase cultures, counted and plated in 96 well flat-bottom microtiter plates at a cell density depending on the cell line's growth rate (4,000-20,000 cells/well depending on the cell line's growth rate, up to 60,000 for hematological cancer cell lines) in RPMI 1640 or DMEM medium supplemented with 10% (v/v) fetal calf serum and 50 μg/ml gentamicin (140 μl/well). […] Viability of cells was quantified by the CellTiter-Blue® cell viability assay (Promega G8081) or CellTiter-Glow® Luminescent Cell Viability assay (Promega #G7572). […]

[3] = test system: BT-474; assay: Cell viability assay, BT-474; details: Homo sapiens; breast carcinoma cell line BT-474
Method: as §1, §2

[4] = test system: parental H69 cells; assay: Cell viability assay, parental H69 cells; details: Homo sapiens, NCI-H69; parental H69 cells (SCLC)
Method: as §1, §2

[5] = test system: U-251; assay: Cell viability assay, U-251; details: Homo sapiens; brain carcinoma cell line U-251
Method: as §1, §2

[6] = test system: A549; assay: Cell viability assay, A549; details: Homo sapiens; lung carcinoma cell line A549
Method: as §1, §2

[7] = test system: brain cancer cell; assay: Cell viability, brain cancer cells (panel statement); details: text summary of Tables 3A-3C; read-out: IC50, brain cancer cell growth
Method: as §1, §2

[8] = test system: SK-N-AS; assay: Cell viability assay, SK-N-AS; details: Homo sapiens; brain carcinoma cell line SK-N-AS
Method: as §1, §2

[9] = test system: T47D; assay: Cell viability assay, T47D; details: Homo sapiens; breast carcinoma cell line T47D
Method: as §1, §2

[10] = test system: prostate cancer cell; assay: Cell viability, prostate cancer cells (panel statement); details: summary of Table 20; read-out: IC50, prostate cancer cell growth
Method: as §1, §2

IC50 [2]: < 20 µM
IC50 [3]: 1900 nM
IC50 [5]: 7.54 µM
IC50 [6]: 13.8 µM
IC50 [7]: < 20 µM
IC50 [8]: 3000 nM
IC50 [9]: 1300 nM
IC50 [10]: < 10 µM
SMILES: COc1c(O)ccc2c(=O)c(O)c(-c3ccc(CCCC[P+](c4ccccc4)(c4ccccc4)c4ccccc4)cc3)oc12 [SND190, (4-(4-(3,7-Dihydroxy-8-methoxy-4-oxo-4H1-chromen-2-yl)phenyl)butyl)triphenylphosphonium bromide]
IC50 [1]: < 10 µM
IC50 [4]: 1420 nM
